The record followed here is US20080234232A1, “Methods and compositions for targeting AFAP” (priority 2007, published 2008).

The subject of test [1] is AFAP-110 colocalization with cSrc and cSrc activation. Description: Immunofluorescence: PMA-induced colocalization of AFAP-110 with cSrc and cSrc activation in mouse embryo fibroblasts. The class given is cell-based. The procedure:
FIG. 1: LY294002 blocks PMA-induced colocalization between AFAP-110 and cSrc, and subsequent cSrc activation. A) SYF cells transiently co-expressing GFP-AFAP-110 and cSrc were untreated (panels a-d), treated with 100 nM PMA for 15 minutes (panels e-h), or treated with PMA and either 6 μM bisindolylmaleimide (panels i-I), 10 μM LY294002 (panels m-p) or 50 nM Wortmannin (panels q-t). Fixed cells were immunolabeled with avian specific cSrc antibody, EC10 (1:500), and phospho-Src-family (Tyr416) (1:250) as described in the methods section. Secondary antibodies used were Atexa 546 anti-mouse for EC10 and Alexa 647 anti-rabbit for phospho-Src-family (Tyr416). A merged image was generated to determine colocalization between AFAP-110 and cSrc. Bars represent 20 μM.
D) Knockout MEFs (p85−/−) were transfected with GFP-AFAP-110 and cSrc. Fixed cells were immunolabeled with EC10 (1:500) and phospho-Src-family (Tyr416) (1:250) as described in the methods section. Secondary antibodies used were Alexa 546 anti-mouse for EC10 and Alexa 647 anti-rabbit for phospho-Src-family (Tyr416). Cells treated with 100 riM PMA for 15 minutes (panels e-h). Images were merged to determine colocalization of cSrc and GFP-AFAP-110. Bars represent 20 μm. Mouse embryo fibroblast cells that express the p85α isoform of the PI3K regulatory subunit (p85α+/+) were transfected with GFP-AFAP-110 and cSrc. Fixed cells were immunolabeled with EC10 (1:500) and phospho-Src-family (Tyr416) (1:250) as described in the methods section. Secondary antibodies used were Alexa 546 anti-mouse for EC10 and Alexa 647 anti-rabbit for phospho-Src-family (Tyr416). Images were merged to determine colocalization of cSrc and GFP-AFAP-110. Bars represent 20 μm.
(§1) SYF, SYF/cSrc, p85α+/+ and p85−/− cells were cultured in standard culture media. Transient transfections of SYF, SYF/cSrc, p85α+/+ cells for immunofluorescence were carried out using LipofectAMINE™ Reagent (Invitrogen) as per manufacturer's protocol. Briefly, Approximately 5.0-8.0×10^4 cells per well were transfected at 50-70% confluent on coverstips with 2-4 μg of plasmid DNA and incubated for 3-4 hours. Thirty-six hours after transfection, cells were serum starved for 12 hours, treated, and subsequently fixed and permeablized as previously described (Qian, Y. et. al., 1998). Cells were treated with a PKC activator, 100 nM PMA for 5 or 15 minutes or in combination with the following pretreatments; a PKC inhibitor, 6 μM bisindolylmaleimide [I] for six hours; or PI3K inhibitor, 10 μM LY294002 for six hours; 50 nM Wortmannin for 30 minutes; and/or a Src family inhibitor, 5 μM PP1 for six hours. For actin labeling, a 1:500 dilution of TRITC-phalloidin was used as labeled in the figures. Primary antibody concentrations used were diluted in 5% Bovine Serum Albumin (BSA) dissolved in 1× phosphate-buffered saline (PBS): EC10 mAb-1:500; Phospho-Src Family (Y416) pAb-1:250; Anti-PI-3,4,5-P3 mAb-1:100; Anti-AFAP-110 (F1)pAb-1:1000; Anti-cSrc pAb-1:500; Anti-flag-1:1000. All fluorescent secondary and phalloidin antibodies were diluted 1:200 in 5% BSA, and are labeled according to figure legends. Cells were washed and mounted on slides with Fluoromount-G (Fisher). A Zeiss LSM 510 confocal microscope was used to scan images of about 1 μM in thickness. To prevent cross-contamination between the different fluorochromes, each channel was imaged sequentially using the multitrack recording module before merging the images. For all figures, representative cells are shown (>100 cells examined per image shown).
We utilized SYF cell lines as a model system, mouse embryo fibroblasts engineered to contain null mutations in the c-src,fyn, and c-yes genes (Klinghoffer, R. A. et. al., 1999). The cells were transiently co-transfected with constructs that encode cSrc and GFP-tagged AFAP-110, as previously described (Gatesman, A. et. al., 2004). […]

Test [2] deals with PI3K. Description: Immunofluorescence of Ptdlns-3,4,5-P3 production in SYF/cSrc cells. The class given is cell-based, mouse. Particulars: 100 nM PMA. The procedure:
SYF/cSrc cells were serum-starved for 24 hours. Cells stimulated with 10% serum (panels c-f), 100 nM PMA for 5 (panels g-h), or 15 minutes (panels i-j); as well as treated with 100 nM PMA in combination with 6 μM bisindolylmaleimide [I] (panels k-I) or 50 nM wortmannin (panels m-n). Cells treated with 100 nM PMA in combination with 5 μM PP1 (panel o-p) and Ptdlns-3,4,5-P3 levels evaluated. Cells were immunolabeled with a PI-3,4,5-P3-specific antibody (Echelon, Inc.;1:100) and TRITC-phalloidin (1:500). Secondary antibody for anti-PI-3,4,5-P3 (1:100) was Alexa IgM 647 anti-mouse (1:200). Bars represent 20 μm.
as §1
Ptdlns-3,4,5-P3 production was measured using the anti-Ptdlns-3,4,5-P3 antibody (Echelon, inc.) for analysis by immunofluorescence and contrasted with stress filament integrity, measured using TRITC-phalloidin as previously described (Chen, R. et. al., 2002; Hama, H. et. al., 2004). SYF/cSrc cells were left untreated or treated with serum as controls for PI3K activation. […] In addition, SYF/cSrc cells were stimulated with PMA for 5 or 15 minutes.

Test [3] concerns PI3K. Description: Surrogate markers for PI3K activation in the MEF cell system. Format: cell-based, mouse. The following applies: PMA treatment.
[4] abbreviates: p85−/− cells, 100 nM PMA 15 min.

Regarding `CCCCCCCCCCCCCC(=O)O[C@@H]1[C@@H](C)[C@@]2(O)[C@@H](C=C(CO)C[C@]3(O)C(=O)C(C)=C[C@@H]23)[C@@H]2C(C)(C)[C@]12OC(C)=O` [PMA, Phorbol 12-myristate 13-acetate], in test [1] (SYF cells, 100 nM PMA 15 min), the “activation of cSrc (anti-phospho-cSrc Y416 immunoreactivity) on PMA treatment” value is reported as “evidence for activation of cSrc” and the “colocalization of GFP-AFAP-110 with cSrc on PMA treatment” value was “caused GFP-AFAP-110 to colocalize with cSrc”. Further, in test [1] (p85α+/+ cells), the “cSrc activation on PMA treatment” value is listed as “enables PMA to induce” and the “colocalization of AFAP-110 with cSrc on PMA treatment” value was “enables PMA to induce”. In test [1] (setting [4]), the “cSrc activation on PMA treatment” value is listed as “no evidence for cSrc activation” and the “colocalization of AFAP-110 with cSrc on PMA treatment” value is reported as “failed to induce significant colocalization”. For the same molecule, the “Ptdlns-3,4,5-P3 production” value in test [2] (5 minutes) is given as “able to induce”. In addition, the “Ptdlns-3,4,5-P3 levels” value in test [2] (15 minutes) was “consistently reduced”. Moreover, in test [3], the “Akt phosphorylation on serine 473” value is given as “could induce an increase” and the “stabilization of HIF-1α” value is “could induce”.
